Measured values published in ChEMBL document CHEMBL3046247, “Anti-inflammatory and antioxidant activities of some extracts and pure natural products isolated from Rhus tripartitum (Ucria)” (Med Chem Res, 2010).
Values after ≈ are worked out from the molar mass of the structure shown.

What was measured:
Type in all cases: functional
[1] = Antioxidant activity assessed as inhibition of ABTS radical formation at 0.03 mg/ml measured at 20 min relative to trolox
Rattus norvegicus [2] = assay: Anti-inflammatory activity in fasted Rattus norvegicus Wistar (rat) assessed as inhibition of carrageenan-induced paw edema at 0.1 mg/kg, ip administered 1 hr prior to carrageenan challenge measured at 1 hr relative to control; settings: route intraperitoneal
[3] = Antioxidant activity assessed as inhibition of ABTS radical formation at 0.25 mg/ml measured at 15 min relative to trolox
[4] = Antioxidant activity assessed as inhibition of ABTS radical formation at 1 mg/ml measured at 20 min relative to trolox
[5] = Antioxidant activity assessed as inhibition of ABTS radical formation at 0.03 mg/ml measured at 5 min relative to trolox
Rattus norvegicus [6] = assay: Anti-inflammatory activity in fasted Rattus norvegicus Wistar (rat) assessed as inhibition of carrageenan-induced paw edema at 1 mg/kg, ip administered 1 hr prior to carrageenan challenge measured at 5 hr relative to control; settings: route intraperitoneal
Rattus norvegicus [7] = assay: Anti-inflammatory activity in fasted Rattus norvegicus Wistar (rat) assessed as inhibition of carrageenan-induced paw edema at 0.5 mg/kg, ip administered 1 hr prior to carrageenan challenge measured at 3 hr relative to control; settings: route intraperitoneal
[8] = Antioxidant activity assessed as trolox equivalent of ABTS radical scavenging activity at 20 min
[9] = Antioxidant activity assessed as inhibition of ABTS radical formation at 0.25 mg/ml measured at 10 min relative to trolox
[10] = Antioxidant activity assessed as trolox equivalent of ABTS radical scavenging activity at 15 min
[11] = Antioxidant activity assessed as inhibition of ABTS radical formation at 0.12 mg/ml measured at 20 min relative to trolox
[12] = Antioxidant activity assessed as inhibition of ABTS radical formation at 0.06 mg/ml measured at 20 min relative to trolox
[13] = Antioxidant activity assessed as inhibition of ABTS radical formation at 0.5 mg/ml measured at 10 min relative to trolox
[14] = Antioxidant activity assessed as inhibition of ABTS radical formation at 0.5 mg/ml measured at 15 min relative to trolox
[15] = Antioxidant activity assessed as inhibition of ABTS radical formation at 1 mg/ml measured at 15 min relative to trolox
[16] = Antioxidant activity assessed as inhibition of ABTS radical formation at 1 mg/ml measured at 10 min relative to trolox
[17] = Antioxidant activity assessed as inhibition of ABTS radical formation at 0.25 mg/ml measured at 20 min relative to trolox
[18] = Antioxidant activity assessed as inhibition of ABTS radical formation at 0.06 mg/ml measured at 15 min relative to trolox
[19] = Antioxidant activity assessed as trolox equivalent of ABTS radical scavenging activity at 5 min
Rattus norvegicus [20] = assay: Anti-inflammatory activity in fasted Rattus norvegicus Wistar (rat) assessed as inhibition of carrageenan-induced paw edema at 0.1 mg/kg, ip administered 1 hr prior to carrageenan challenge measured at 3 hr relative to control; settings: route intraperitoneal
Rattus norvegicus [21] = assay: Anti-inflammatory activity in fasted Rattus norvegicus Wistar (rat) assessed as inhibition of carrageenan-induced paw edema at 1 mg/kg, ip administered 1 hr prior to carrageenan challenge measured at 3 hr relative to control; settings: route intraperitoneal
[22] = Antioxidant activity assessed as inhibition of ABTS radical formation at 0.03 mg/ml measured at 10 min relative to trolox
[23] = Antioxidant activity assessed as inhibition of ABTS radical formation at 0.03 mg/ml measured at 15 min relative to trolox
Rattus norvegicus [24] = assay: Anti-inflammatory activity in fasted Rattus norvegicus Wistar (rat) assessed as inhibition of carrageenan-induced paw edema at 0.5 mg/kg, ip administered 1 hr prior to carrageenan challenge measured at 1 hr relative to control; settings: route intraperitoneal
[25] = Antioxidant activity assessed as inhibition of ABTS radical formation at 0.5 mg/ml measured at 20 min relative to trolox
[26] = Antioxidant activity assessed as inhibition of ABTS radical formation at 0.06 mg/ml measured at 10 min relative to trolox
Rattus norvegicus [27] = assay: Anti-inflammatory activity in fasted Rattus norvegicus Wistar (rat) assessed as inhibition of carrageenan-induced paw edema at 0.5 mg/kg, ip administered 1 hr prior to carrageenan challenge measured at 5 hr relative to control; settings: route intraperitoneal
[28] = Antioxidant activity assessed as inhibition of ABTS radical formation at 0.5 mg/ml measured at 5 min relative to trolox
Rattus norvegicus [29] = assay: Anti-inflammatory activity in fasted Rattus norvegicus Wistar (rat) assessed as inhibition of carrageenan-induced paw edema at 1 mg/kg, ip administered 1 hr prior to carrageenan challenge measured at 1 hr relative to control; settings: route intraperitoneal
[30] = Antioxidant activity assessed as inhibition of ABTS radical formation at 0.12 mg/ml measured at 5 min relative to trolox
Rattus norvegicus [31] = assay: Anti-inflammatory activity in fasted Rattus norvegicus Wistar (rat) assessed as inhibition of carrageenan-induced paw edema at 0.1 mg/kg, ip administered 1 hr prior to carrageenan challenge measured at 5 hr relative to control; settings: route intraperitoneal
[32] = Antioxidant activity assessed as inhibition of ABTS radical formation at 0.06 mg/ml measured at 5 min relative to trolox
[33] = Antioxidant activity assessed as inhibition of ABTS radical formation at 1 mg/ml measured at 5 min relative to trolox
[34] = Antioxidant activity assessed as inhibition of ABTS radical formation at 0.12 mg/ml measured at 10 min relative to trolox
[35] = Antioxidant activity assessed as inhibition of ABTS radical formation at 0.12 mg/ml measured at 15 min relative to trolox
[36] = Antioxidant activity assessed as trolox equivalent of ABTS radical scavenging activity at 10 min
[37] = Antioxidant activity assessed as inhibition of ABTS radical formation at 0.25 mg/ml measured at 5 min relative to trolox
[38] = system: Radical scavenging activity; assay: Antioxidant activity assessed as inhibition of DPPH radical formation at 0.2 to 1 mg/ml measured at 30 min relative to trolox
[39] = system: Radical scavenging activity; assay: Antioxidant activity assessed as inhibition of DPPH radical formation measured at 30 min relative to trolox
[40] = system: Radical scavenging activity; assay: Antioxidant activity assessed as inhibition of DPPH radical formation at 1 mg/ml measured at 30 min relative to trolox

| SMILES | Imax [1] | Imax [3] | Imax [4] | Imax [5] | Activity [8] | Imax [9] | Activity [10] | Imax [11] | Imax [12] | Imax [13] | Imax [14] | Imax [15] | Imax [16] | Imax [17] | Imax [18] | Activity [19] | Imax [22] | Imax [23] | Imax [25] | Imax [26] | other results |
| --- | --- | --- | --- | --- | --- | --- | --- | --- | --- | --- | --- | --- | --- | --- | --- | --- | --- | --- | --- | --- | --- |
| O=C1C[C@H](c2ccc(O)cc2)Oc2cc(Oc3c(O)cc4c(c3O)C(=O)C[C@H](c3ccc(O)cc3)O4)cc(O)c21 [MASAZINOFLAVANONE] | 18.3% | 49.8% | 77.7% | 13.3% | 1.2 mMequiv/mg | 47.7% | 1.18 mMequiv/mg | 45.7% | 38.4% | 60.6% | 62.5% | 75.5% | 73% | 52.3% | 36.2% | 1.12 mMequiv/mg | 15.1% | 16.3% | 64.4% | 30.4% | inhibition in vivo at 0.1 mg/kg (Rattus norvegicus [2]): 7%; inhibition in vivo at 1 mg/kg (Rattus norvegicus [6]): 27%; inhibition in vivo at 0.5 mg/kg (Rattus norvegicus [7]): 25%; inhibition in vivo at 0.1 mg/kg (Rattus norvegicus [20]): 8%; inhibition in vivo at 1 mg/kg (Rattus norvegicus [21]): 31%; inhibition in vivo at 0.5 mg/kg (Rattus norvegicus [24]): 24%; inhibition in vivo at 0.5 mg/kg (Rattus norvegicus [27]): 14%; Imax [28]: 59.5%; inhibition in vivo at 1 mg/kg (Rattus norvegicus [29]): 31%; Imax [30]: 32.8%; inhibition in vivo at 0.1 mg/kg (Rattus norvegicus [31]): 10%; Imax [32]: 26.7%; Imax [33]: 72%; Imax [34]: 35.9%; Imax [35]: 43.2%; Activity [36]: 1.15 mMequiv/mg; Imax [37]: 40.9% |
| O=c1c(O)c(-c2cc(O)c(O)c(O)c2)oc2cc(O)cc(O)c12 [MYRICETIN] | 16.6% | 86.1% | 99.8% | 13.3% | 2.4 mMequiv/mg | 83.2% | 2.38 mMequiv/mg | 53.2% | 32.8% | 98.7% | 98.6% | 99.8% | 99.8% | 88.6% | 31.6% | 2.4 mMequiv/mg | 14.5% | 16% | 98.6% | 29.8% | Imax [38]: 75.1%; Imax [28]: 98.5%; Imax [30]: 45.4%; Imax [32]: 27.8%; Imax [33]: 99.7%; Imax [34]: 48.3%; Imax [35]: 51.1%; Activity [36]: 2.4 mMequiv/mg; Imax [37]: 78.8%; IC50 [39]: 22 µg/mL (≈ 69.1 µM) |
| C[C@@H]1C[C@H]2[C@@H]3CCC4=CC(=O)C=C[C@]4(C)[C@@]3(F)[C@@H](O)C[C@]2(C)[C@@]1(O)C(=O)CO [DEXAMETHASONE] |  |  |  |  |  |  |  |  |  |  |  |  |  |  |  |  |  |  |  |  | inhibition in vivo at 1 mg/kg (Rattus norvegicus [6]): 40%; inhibition in vivo at 1 mg/kg (Rattus norvegicus [21]): 30%; inhibition in vivo at 1 mg/kg (Rattus norvegicus [29]): 23% |
| COc1cc([C@@H]2c3c(cc(OC)c(O)c3OC)C[C@H](CO)[C@H]2CO[C@@H]2O[C@H](CO)[C@@H](O)[C@H](O)[C@H]2O)cc(OC)c1O | 23.3% | 41.6% | 65.5% | 13.2% | 1.58 mMequiv/mg | 37.8% | 1.45 mMequiv/mg | 35.7% | 29.9% | 55.5% | 60.9% | 60.1% | 55.3% | 47.8% | 24.6% | 1.19 mMequiv/mg | 15.3% | 18.9% | 66.6% | 20.8% | Imax [40]: 64.4%; Imax [28]: 48.5%; Imax [30]: 23.8%; Imax [32]: 18%; Imax [33]: 49.4%; Imax [34]: 27.2%; Imax [35]: 30.9%; Activity [36]: 1.33 mMequiv/mg; Imax [37]: 31.9%; IC50 [39]: 251.1 µg/mL (≈ 431 µM) |
